Results: patent US20260285850A1, “SUBSTITUTED OXAZOLIDINONES AND IMIDAZOLINONES AS HERBICIDES” (FMC CORPORATION, priority 2023, published 2026)

Columns and labels:
Format in all cases: in vivo
[1] = system: barnyardgrass (Echinochloa crus-galli); experiment: Test A preemergence soil spray, visual injury rating 0-100; details: 10 days, 0 = no effect, 100 = complete control; for Barnyardgrass plant response rating (0-100): 31 g ai/ha; for Barnyardgrass plant response rating (0 to 100 scale): 125 g ai/ha
In short: (§1)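 Loam-sand pots got test material in surfactant-containing solvent, either as a directed soil spray before emergence or on plants at the one- to two-leaf stage. Visual injury (0-100) was read after ten greenhouse days.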

kochia (Bassia scoparia) [2] = experiment: as above; details: 10 days, 0 = no effect, 100 = complete control; for Kochia plant response rating (0-100): 31 g ai/ha; for Kochia plant response rating (0 to 100 scale): 125 g ai/ha
In short: as §1

[3] = system: blackgrass (Alopecurus myosuroides); experiment: as above; details: 10 days, 0 = no effect, 100 = complete control; for Blackgrass plant response rating (0-100): 31 g ai/ha; for Blackgrass plant response rating (0 to 100 scale): 125 g ai/ha
In short: as §1

[4] = system: ryegrass, Italian (italian ryegrass, Lolium multiflorum); experiment: as above; details: 10 days, 0 = no effect, 100 = complete control; for Ryegrass, Italian plant response rating (0-100): 31 g ai/ha; for Ryegrass, Italian plant response rating (0 to 100 scale): 125 g ai/ha
In short: as §1

[5] = system: palmer (palmer amaranth, palmer pigweed, Amaranthus palmeri); experiment: as above; details: 10 days, 0 = no effect, 100 = complete control; for Amaranth, Palmer plant response rating (0-100): 31 g ai/ha; for Amaranth, Palmer plant response rating (0 to 100 scale): 125 g ai/ha
In short: as §1

[6] = system: wheat (Triticum aestivum); experiment: as above; details: 10 days, 0 = no effect, 100 = complete control; for Wheat plant response rating (0-100): 31 g ai/ha; for Wheat plant response rating (0 to 100 scale): 125 g ai/ha
In short: as §1

[7] = system: ragweed (common ragweed, Ambrosia artemisiifolia); experiment: as above; details: 10 days, 0 = no effect, 100 = complete control; for Ragweed plant response rating (0-100): 31 g ai/ha; for Ragweed plant response rating (0 to 100 scale): 125 g ai/ha
In short: as §1

soybean (Glycine max) [8] = experiment: as above; details: 10 days, 0 = no effect, 100 = complete control; for Soybean plant response rating (0-100): 31 g ai/ha; for Soybean plant response rating (0 to 100 scale): 125 g ai/ha
In short: as §1

[9] = system: oat, wild (wild oat, Avena fatua); experiment: as above; details: 10 days, 0 = no effect, 100 = complete control; for Oat, Wild plant response rating (0-100): 31 g ai/ha; for Oat, Wild plant response rating (0 to 100 scale): 125 g ai/ha
In short: as §1

corn (Zea mays) [10] = experiment: as above; details: 10 days, 0 = no effect, 100 = complete control; for Corn plant response rating (0-100): 31 g ai/ha; for Corn plant response rating (0 to 100 scale): 125 g ai/ha
In short: as §1

[11] = system: ducksalad (Heteranthera limosa); experiment: Test B flooded paddy test, visual plant response rating 0-100; details: 250 g ai/ha, Flood, applied to paddy water, evaluated after 13 days
In short: (§2)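 Plants were grown to the 2-leaf stage, then pots were flooded to 3 cm above the soil and test compounds were applied directly into the paddy water. Water depth was held there throughout; after 13 days in a greenhouse, injury was scored visually against untreated controls.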

[12] = system: sedge, umbrella (small-flower umbrella sedge, Cyperus difformis); experiment: as above; details: 250 g ai/ha, Flood, applied to paddy water, evaluated after 13 days
In short: as §2

[13] = system: barnyardgrass (Echinochloa crusgalli); experiment: as above; details: 250 g ai/ha, Flood, applied to paddy water, evaluated after 13 days
In short: as §2

rice (Oryza sativa) = experiment: as above; details: 250 g ai/ha, Flood, applied to paddy water, evaluated after 13 days
In short: as §2

[14] = system: barnyardgrass (Echinochloa crus-galli); experiment: Test A postemergence application, visual injury rating 0-100; details: Postemergence
In short: as §1

kochia (Bassia scoparia) [15] = experiment: as above; details: Postemergence
In short: as §1

[16] = system: blackgrass (Alopecurus myosuroides); experiment: as above; details: Postemergence
In short: as §1

[17] = system: ryegrass, Italian (italian ryegrass, Lolium multiflorum); experiment: as above; details: Postemergence
In short: as §1

[18] = system: galium (catchweed bedstraw, Galium aparine); experiment: as above; details: Postemergence
In short: as §1

[19] = system: palmer (palmer amaranth, palmer pigweed, Amaranthus palmeri); experiment: as above; details: Postemergence
In short: as §1

[20] = system: wheat (Triticum aestivum); experiment: as above; details: Postemergence
In short: as §1

[21] = system: ragweed (common ragweed, Ambrosia artemisiifolia); experiment: as above; details: Postemergence
In short: as §1

soybean (Glycine max) [22] = experiment: as above; details: Postemergence
In short: as §1

[23] = system: oat, wild (wild oat, Avena fatua); experiment: as above; details: Postemergence
In short: as §1

[24] = system: horseweed (Erigeron canadensis); experiment: as above; details: Postemergence
In short: as §1

corn (Zea mays) [25] = experiment: as above; details: Postemergence
In short: as §1

[26] = 31 g ai/ha, greenhouse 10 days, 0 no effect, 100 complete control
[27] = 125 g ai/ha, 10 days, 0 is no effect, 100 is complete control

With CSCCOC(=O)C1C=CC(NC(=O)C2(C)CN(c3cc(Cl)cc(Cl)c3)C(=O)O2)C1 (stereo not drawn) [Compound 69] the “Barnyardgrass plant response rating (0-100)” value [1] was 60, the “Barnyardgrass plant response rating (0 to 100 scale)” value [1] was 90 and the “Kochia plant response rating (0-100)” value (kochia (Bassia scoparia) [2]) was 40. The “Kochia plant response rating (0 to 100 scale)” value (kochia (Bassia scoparia) [2]) was 90, the “Blackgrass plant response rating (0-100)” value [3] was 40 and the “Blackgrass plant response rating (0 to 100 scale)” value [3] was 60. For the same compound, the “Ryegrass, Italian plant response rating (0-100)” value [4] was 30, the “Ryegrass, Italian plant response rating (0 to 100 scale)” value (“Ryegrass … (0 to 100 scale)” below) [4] was 80 and the “Amaranth, Palmer plant response rating (0-100)” value [5] was 90. The “Amaranth, Palmer plant response rating (0 to 100 scale)” value [5] was 90, the “Wheat plant response rating (0-100)” value [6] was 30 and the “Wheat plant response rating (0 to 100 scale)” value [6] was 70. For the same compound, the “Ragweed plant response rating (0-100)” value [7] was 0, the “Ragweed plant response rating (0 to 100 scale)” value [7] was 20 and the “Soybean plant response rating (0-100)” value (soybean (Glycine max) [8]) was 20. The “Soybean plant response rating (0 to 100 scale)” value (soybean (Glycine max) [8]) was 50, the “Oat, Wild plant response rating (0-100)” value [9] was 0 and the “Oat, Wild plant response rating (0 to 100 scale)” value (shortened to “Oat … (0 to 100 scale)”) [9] was 60. For the same compound, the “Corn plant response rating (0-100)” value (corn (Zea mays) [10]) was 0, the “Corn plant response rating (0 to 100 scale)” value (corn (Zea mays) [10]) was 60 and the “Plant response rating, Ducksalad (0 to 100 scale, 0 is no effect and 100 is complete control)” value [11] was 60. The “Plant response rating, Sedge, Umbrella (0 to 100 scale, 0 is no effect and 100 is complete control)” value [12] was 95, the “Plant response rating, Barnyardgrass (0 to 100 scale, 0 is no effect and 100 is complete control)” value [13] was 85 and the “Plant response rating, Rice (0 to 100 scale, 0 is no effect and 100 is complete control)” value (rice (Oryza sativa)) was 50. For the same compound, the “Barnyardgrass plant response rating (0 to 100 scale)” value [14, 26] was 90, the “Barnyardgrass plant response rating (0 to 100 scale)” value [14, 27] was 90 and the “Kochia plant response rating (0 to 100 scale)” value (kochia (Bassia scoparia) [15]; [26]) was 80. For the same compound, the “Kochia plant response rating (0 to 100 scale)” value (kochia (Bassia scoparia) [15]; [27]) was 80, the “Blackgrass plant response rating (0 to 100 scale)” value [16, 26] was 90 and the “Blackgrass plant response rating (0 to 100 scale)” value [16, 27] was 90. The “Ryegrass … (0 to 100 scale)” value [17, 26] was 70, the “Ryegrass … (0 to 100 scale)” value [17, 27] was 70 and the “Galium plant response rating (0 to 100 scale)” value (shortened to “Galium plant response rating”) [18, 26] was 80. For the same compound, the “Galium plant response rating” value [18, 27] was 80, the “Amaranth, Palmer / Pigweed, Palmer plant response rating (0 to 100 scale)” value (from here on “Amaranth, Palmer / Pigweed”) [19, 26] was 90 and the “Amaranth, Palmer / Pigweed” value [19, 27] was 90. For the same compound, the “Wheat plant response rating (0 to 100 scale)” value [20, 26] was 90, the “Wheat plant response rating (0 to 100 scale)” value [20, 27] was 90 and the “Ragweed plant response rating (0 to 100 scale)” value [21, 26] was 50. The “Ragweed plant response rating (0 to 100 scale)” value [21, 27] was 70, the “Soybean plant response rating (0 to 100 scale)” value (soybean (Glycine max) [22]; [26]) was 60 and the “Soybean plant response rating (0 to 100 scale)” value (soybean (Glycine max) [22]; [27]) was 90. For the same compound, the “Oat … (0 to 100 scale)” value [23, 26] was 90, the “Oat … (0 to 100 scale)” value [23, 27] was 90 and the “Horseweed plant response rating (0 to 100 scale)” value (“Horseweed plant response rating” for short) [24, 26] was 70. For the same compound, the “Horseweed plant response rating” value [24, 27] was 80, the “Corn plant response rating (0 to 100 scale)” value (corn (Zea mays) [25]; [26]) was 100 and the “Corn plant response rating (0 to 100 scale)” value (corn (Zea mays) [25]; [27]) was 100.

CC(C)OC(=O)C1=CCC(NC(=O)C2(C)CN(c3cc(Cl)cc(Cl)c3)C(=O)O2)C1 (stereo not drawn) [Compound 70] was tested, and the “Barnyardgrass plant response rating (0-100)” value [1] was 30, the “Barnyardgrass plant response rating (0 to 100 scale)” value [1] was 90 and the “Kochia plant response rating (0-100)” value (kochia (Bassia scoparia) [2]) was 0. For the same compound, the “Kochia plant response rating (0 to 100 scale)” value (kochia (Bassia scoparia) [2]) was 40, the “Blackgrass plant response rating (0-100)” value [3] was 10 and the “Blackgrass plant response rating (0 to 100 scale)” value [3] was 30. The “Ryegrass, Italian plant response rating (0-100)” value [4] was 0, the “Ryegrass … (0 to 100 scale)” value [4] was 70 and the “Amaranth, Palmer plant response rating (0-100)” value [5] was 30. For the same compound, the “Amaranth, Palmer plant response rating (0 to 100 scale)” value [5] was 90, the “Wheat plant response rating (0-100)” value [6] was 0 and the “Wheat plant response rating (0 to 100 scale)” value [6] was 70. The “Ragweed plant response rating (0-100)” value [7] was 10, the “Ragweed plant response rating (0 to 100 scale)” value [7] was 10 and the “Soybean plant response rating (0-100)” value (soybean (Glycine max) [8]) was 0. The “Soybean plant response rating (0 to 100 scale)” value (soybean (Glycine max) [8]) was 30, the “Oat, Wild plant response rating (0-100)” value [9] was 0 and the “Oat … (0 to 100 scale)” value [9] was 20. For the same compound, the “Corn plant response rating (0-100)” value (corn (Zea mays) [10]) was 0, the “Corn plant response rating (0 to 100 scale)” value (corn (Zea mays) [10]) was 20 and the “Plant response rating, Ducksalad (0 to 100 scale, 0 is no effect and 100 is complete control)” value [11] was 65. The “Plant response rating, Sedge, Umbrella (0 to 100 scale, 0 is no effect and 100 is complete control)” value [12] was 98, the “Plant response rating, Barnyardgrass (0 to 100 scale, 0 is no effect and 100 is complete control)” value [13] was 50 and the “Plant response rating, Rice (0 to 100 scale, 0 is no effect and 100 is complete control)” value (rice (Oryza sativa)) was 60. For the same compound, the “Barnyardgrass plant response rating (0 to 100 scale)” value [14, 26] was 90, the “Barnyardgrass plant response rating (0 to 100 scale)” value [14, 27] was 90 and the “Kochia plant response rating (0 to 100 scale)” value (kochia (Bassia scoparia) [15]; [26]) was 80. For the same compound, the “Kochia plant response rating (0 to 100 scale)” value (kochia (Bassia scoparia) [15]; [27]) was 80, the “Blackgrass plant response rating (0 to 100 scale)” value [16, 26] was 50 and the “Blackgrass plant response rating (0 to 100 scale)” value [16, 27] was 80. The “Ryegrass … (0 to 100 scale)” value [17, 26] was 70, the “Ryegrass … (0 to 100 scale)” value [17, 27] was 70 and the “Galium plant response rating” value [18, 26] was 80. For the same compound, the “Galium plant response rating” value [18, 27] was 80, the “Amaranth, Palmer / Pigweed” value [19, 26] was 90 and the “Amaranth, Palmer / Pigweed” value [19, 27] was 90. The “Wheat plant response rating (0 to 100 scale)” value [20, 26] was 80, the “Wheat plant response rating (0 to 100 scale)” value [20, 27] was 90 and the “Ragweed plant response rating (0 to 100 scale)” value [21, 26] was 0. For the same compound, the “Ragweed plant response rating (0 to 100 scale)” value [21, 27] was 50, the “Soybean plant response rating (0 to 100 scale)” value (soybean (Glycine max) [22]; [26]) was 80 and the “Soybean plant response rating (0 to 100 scale)” value (soybean (Glycine max) [22]; [27]) was 90. For the same compound, the “Oat … (0 to 100 scale)” value [23, 26] was 30, the “Oat … (0 to 100 scale)” value [23, 27] was 80 and the “Horseweed plant response rating” value [24, 26] was 0. The “Horseweed plant response rating” value [24, 27] was 0, the “Corn plant response rating (0 to 100 scale)” value (corn (Zea mays) [25]; [26]) was 90 and the “Corn plant response rating (0 to 100 scale)” value (corn (Zea mays) [25]; [27]) was 100.
